# In US20030118985A1, “Mouse monoclonal antibody (5-21-3) to human immunodeficiency virus gp41 protein” (priority 1997, published 2003):
# Entries after “also recorded” stand apart in the source; their conditions may differ.
# Key:
# [1] = tested on: mouse (M) anti-rp41 serum; test: Immuno-dot blot of synthetic peptides with mouse anti-rp41 serum; format: binding; conditions: 2% serum
# Description: (§1) The western Blot procedure described in Example 1 was employed for development of immuno-dot blots using synthetic peptides, except that synthetic peptides were fixed to nitrocellulose by direct application using Drummond lambda pipettes, and air dried prior to blocking with 20% fetal calf serum in PBS (pH 7.4).
# [2] = tested on: Rabbit (R) anti-P58-130 serum; test: Immuno-dot blot of synthetic peptides with rabbit anti-P58-130 serum; format: binding; conditions: 2% serum
# Description: as §1
# [3] = tested on: monoclonal antibody 5-21-3; test: Immuno-dot blot of synthetic peptides with 5-21-3; format: binding, mouse; conditions: 25 ug/ml 5-21-3; peptide spotted on nitrocellulose
# Description: as §1
# [4] = tested on: binding of antibody 5-21-3 to rp41; test: Binding inhibition assay: peptides inhibit binding of 5-21-3 to rp41; design: species or system HIV I
# Experimental: Additional evidence for the conformationl nature of the 5-21-3 epitope was obtained using binding inhibition studies, in which synthetic peptides were ranked for their ability to inhibit binding of 5-21-3 to rp41. First, the Fab dimer of an anti-gp41 monoclonal antibody was prepared by conventional methods (Goding et al., supra). Then 100 ul of a 1 mg/ml solution of the Fab dimer in bicarbonate buffer (pH 9.6) was coated onto Immulon II microtiter plates for 1 hr at 37° C. After washing with PBS containing 0.05% Tween 20, the plates were overcoated with 200 ul of 1.0% ovalbumin in bicarbonate buffer (pH 9.6) for 1 hr at 30° C. After washing, 100 ul of rp41 enriched E. coli lysate (as described in Example 3), diluted appropriately in PBS containing 0.05% Tween 20, were allowed to bind to the Fab dimer for 2 hr at 30° C. The plates were washed and stored at 4° C.
# Intact monoclonal antibody 5-21-3 IgG (purified from tissue culture fluid supporting growth of the cloned cell line 5-21-3) was titrated against the bound rp41 on the plate, and an antibody concentration was selected which yielded an A492 value of 2.0-3.0. Usually, 0.4 pmol (0.06 ug) of 5-21-3 IgG per microtiter well was employed in these assays. Stock solutions of 5-21-3 IgG were prepared in PBS containing 0.1% Triton X-100 and 0.1% SDS. Dilutions of synthetic peptides were made in the same buffer (SDS was included in these experiments to keep peptides soluble at high concentrations).
# The binding inhibition assay was performed by combining 0.15 ml of 1.2 ug/ml 5-21-3 antibody stock solution with 0.15 ml of peptide at a selected peptide concentration, and incubating the reaction mixture 1 hr at room temp. Then 0.1 ml aliquots of each reaction mixture were added to each of two wells in the microtiter tray. After a 1 hr incubation at room temp., the plates were washed, and HRPO conjugated Goat anti-mouse IgG Fc was added for 1 hr at room temp. The plates were washed, and addition of OPD for color development identified the relative amounts of 5-21-3 bound to rp41 in the microtiter wells. The reaction was stopped by addition of 100 ul of 1N H2SO4, and the plates were read on a Dynatech II microtiter plate reader.
# [5] = tested on: monoclonal antibody 10-15-63; test: Immunoprecipitation of [125I] synthetic peptides by 10-15-63; format: binding, mouse; conditions: for SPECIFIC PRECIPITATION (CPM) by 10-15-63 / x-fold increase of specific over non-specific precipitation, 10-15-63: 10-15-63 10 μg/0.2 ml
# Experimental: (§2) Synthetic peptides were radiolabeled with ^125I (Amersham) by the chloramine T method (N. M. Hunter, “Radioimmunoassay” in D. M. Weir, Ed., Handbook of Experimental Immunology, [Blackwell Scientific Publications, 1973]). Generally, 2-6 ul of 100 mCi/ml ^125I were added to 10-50 ug of peptide in PBS, pH 7.4. Approximately 10 ug of freshly prepared (1 mg/ml in PBS) chloramine T were added to the mixture maintained at 4° C. After 5 min., [^125I]peptide was separated from free ^125I by passage of the reaction mixture through a 3 ml (bed volume) column of Biogel P-6 or P-2, as required. Fractions (200 ul each) containing [^125I]peptide were pooled and diluted into PBS containing 20% fetal calf serum. Rough estimations of ^125I cpm bound to peptide were made by acid precipitation. An aliquot of labeled peptide was diluted into 1 ml of ice cold 50% trichloroacetic acid (TCA) overlaying a 0.45 um filter (made of mixed cellulose esters) set on a scintered glass filter connected to a vacuum apparatus. Precipitated protein was fixed onto the filter by application of vacuum, and filters were washed with ice-cold 50% TCA. Background cpm adhering non-specifically to the filter were estimated by repeating the procedure using a non-precipitating buffer. Amounts of peptide, ^125I, chloramine T, and composition of column eluting buffer were subject to change depending on conditions required to maintain solubility of each peptide.
# (§3) Synthetic peptides radiolabeled with ^125I were diluted into PBS (pH 7.4) containing 0.1% Triton X-100 (or other detergents where indicated) and 1.0% BSA, to yield approximately 2.5-5×10^5 acid-precipitable cpm per 0.1 ml. Purified monoclonal IgG 5-21-3 and 10-15-63 were employed in the assay. Monoclonal antibodies were diluted into PBS containing 0.1% Triton X-100 (or other detergents where indicated), 1.0% BSA, and 2% normal mouse serum as a carrier immunoglobulin. Immune rabbit serum (anti-P58-130) was diluted appropriately into the same buffer except that normal rabbit serum (2%) was substituted for normal mouse serum as the carrier immunoglobulin. A reaction mixture comprising 0.1 ml [^125I] peptide (5×10^5 cpm/0.1 ml) and 0.1 ml diluted antibody was incubated 1 hr at 40° C., followed by addition of 0.1 ml of a precipitating antibody, either goat anti-mouse IgG, or goat anti-rabbit IgG, corresponding to the primary antibody. The reaction mixture was incubated 1 hr at 40° C. and then overnight at 4° C. […] Precipitation assays employing Protein A-Sepharose as the precipitating reagent were performed in a similar manner, except that normal sera were omitted from the reaction mixtures.
# [6] = tested on: monoclonal antibody 10-15-63; test: Immuno-dot blot of synthetic peptides with 10-15-63; format: binding, mouse; conditions: 25 ug/ml 10-15-63
# Description: as §1
# [7] = tested on: Rabbit (R) anti-P58-130 serum; test: Immunoprecipitation of [125I] synthetic peptides by rabbit anti-P58-130 serum; format: binding; conditions: for SPECIFIC PRECIPITATION (CPM) by RαP58-130 / x-fold increase of specific over non-specific precipitation, RαP58-130: rabbit anti-P58-130 serum 20 ul/0.2 ml
# Experimental: as §2, §3
# [8] = tested on: monoclonal antibody 5-21-3; test: Immunoprecipitation of [125I] synthetic peptides by 5-21-3; format: binding, mouse; conditions: for SPECIFIC PRECIPITATION (CPM) by 5-21-3 / x-fold increase of specific over non-specific precipitation, 5-21-3: 5-21-3 10 μg/0.2 ml
# Experimental: as §2, §3
# [9] = detergent-rich buffer, Protein A-Sepharose
# [10] = PBS, 0.1% Triton X-100, 1.0% BSA, carrier serum, second antibody precipitation
# [11] = second antibody precipitation, vs normal mouse IgG
substance,measurement,setting,value
H-TVWGIKELQARILAVERYLKDQQLLGIWGCSGKLICTTAVPWNASWSNKSLEQIWNNMTWMEWDREINNYTSL-OH [P58-130],immuno-dot blot reactivity with mouse anti-rp41 serum,[1],Strong reactivities
same,immuno-dot blot reactivity with rabbit anti-P58-130 serum,[2],Strong reactivities
same,immuno-dot blot reactivity with 5-21-3,[3],did not react
same,"inhibition of 5-21-3 binding to rp41, in words",[4],no detectable inhibition
same,SPECIFIC PRECIPITATION (CPM) by 10-15-63,[5]; [9],0 CPM
same,"x-fold increase of specific over non-specific precipitation, 10-15-63",[5]; [9],(<1) x-fold
same,immuno-dot blot reactivity with 10-15-63,[6],Little or no reactivity
same,"precipitation of [125I]peptide by rabbit anti-P58-130, in words",[7],strong precipitator
same,SPECIFIC PRECIPITATION (CPM) by RαP58-130,[7]; [9],"286,722 CPM"
same,"x-fold increase of specific over non-specific precipitation, RαP58-130",[7]; [9],(32) x-fold
same,"binding of [125I]peptide by 5-21-3 (immunoprecipitation), in words",[8],unable to bind
same,SPECIFIC PRECIPITATION (CPM) by 5-21-3,"[8]; detergent-rich buffer (0.1% Triton X-100, 1.0% sodium deoxycholate, 0.1% SDS), Protein A-Sepharose",0 CPM
same,"x-fold increase of specific over non-specific precipitation, 5-21-3",[8]; [9],(<1) x-fold
ARILAVERYLKDQQLLGIWGCSGKLICTTAVPWNASWSNKSLEQIWNNMTWMEWDREINNYSLIHSLIEESQNQQEKNELLELNK [P67-154],immuno-dot blot reactivity with mouse anti-rp41 serum,[1],Strong reactivities
same,immuno-dot blot reactivity with rabbit anti-P58-130 serum,[2],Strong reactivities
same,immuno-dot blot reactivity with 5-21-3,[3],very strong reaction
same,"inhibition of 5-21-3 binding to rp41, in words",[4],potent inhibitor; also recorded: most potent inhibitor
same,Molar Ratio at 50% inhibition of 5-21-3 binding,"[4]; mean of two experiments, 0.4 pmol 5-21-3 IgG per well",72.7 pmoles peptide/pmoles 5-21-3
same,SPECIFIC PRECIPITATION (CPM),[5]; 10-15-63 1.0 μg/ml final,0 CPM
same,x-fold increase of specific over non-specific precipitation,[5]; 10-15-63 1.0 μg/ml final,(0) x-fold
same,SPECIFIC PRECIPITATION (CPM) by 10-15-63,[5]; [10],9713 CPM
same,"x-fold increase of specific over non-specific precipitation, 10-15-63",[5]; [11],(1.3) x-fold
same,SPECIFIC PRECIPITATION (CPM),[5]; 10-15-63 10.0 μg/ml final,0 CPM
same,x-fold increase of specific over non-specific precipitation,[5]; 10-15-63 10.0 μg/ml final,(0) x-fold
same,SPECIFIC PRECIPITATION (CPM),[5]; 10-15-63 100.0 μg/ml final,0 CPM
same,x-fold increase of specific over non-specific precipitation,[5]; 10-15-63 100.0 μg/ml final,(0) x-fold
same,immuno-dot blot reactivity with 10-15-63,[6],Little or no reactivity
same,"precipitation of [125I]peptide by rabbit anti-P58-130, in words",[7],strong precipitator
same,SPECIFIC PRECIPITATION (CPM) by RαP58-130,[7]; second antibody precipitation,"479,343 CPM"
same,"x-fold increase of specific over non-specific precipitation, RαP58-130","[7]; second antibody precipitation, vs normal rabbit serum",(4.4) x-fold
same,"binding of [125I]peptide by 5-21-3 (immunoprecipitation), in words",[8],readily bound
same,SPECIFIC PRECIPITATION (CPM),[8]; 5-21-3 1.0 μg/ml final,"165,781 CPM"
same,x-fold increase of specific over non-specific precipitation,[8]; 5-21-3 1.0 μg/ml final,(3.6) x-fold
same,SPECIFIC PRECIPITATION (CPM) by 5-21-3,[8]; [10],"479,207 CPM"
same,"x-fold increase of specific over non-specific precipitation, 5-21-3",[8]; [11],(16) x-fold
same,SPECIFIC PRECIPITATION (CPM),[8]; 5-21-3 10.0 μg/ml final,"441,887 CPM"
same,x-fold increase of specific over non-specific precipitation,[8]; 5-21-3 10.0 μg/ml final,(8.5 x-fold
same,SPECIFIC PRECIPITATION (CPM),[8]; 5-21-3 100.0 μg/ml final,"659,045 CPM"
same,x-fold increase of specific over non-specific precipitation,[8]; 5-21-3 100.0 μg/ml final,(8.0) x-fold
same,5-21-3 concentration required to demonstrate binding of the peptide,"[8]; immunoprecipitation, Table 5",≤ 1 µg/mL
